# Earlier results in patent US20200245614A1, “AGROCHEMICAL EMULSIFIABLE CONCENTRATE COMPOSITION” (priority 2017, published 2020).
# Settings: n-octanol/water
row,Molecule,LogPow value
1,"CCCCOC(=O)OCCCC [Composition B-3, Di-n-butyl carbonate]",3.47
2,"CC(C)COC(=O)CCCCC(=O)OCC(C)C [Composition B-4, Diisobutyl adipate]",3.70
3,"CCCCCCCCCCCC(=O)OC [Composition B-5, Methyl laurate]",5.41
4,"COCCOCCO [Composition C-1, Diethylene glycol monomethyl ether]",−1.18
5,"OC1CCCCC1 [Composition C-4, Cyclohexanol]",1.2
6,"O=C1CCCCC1 [Composition C-5, Cyclohexanone]",0.86
7,"CCCCOCCOCCO [Composition C-6, Butyl diglycol]",0.56
8,"COCC(C)O (stereo not shown) [Composition C-9, Propylene glycol monomethyl ether]",−0.342
9,"CN1CCCC1=O [Composition C-10, N-methyl-2-pyrrolidone]",−0.38
10,"COC(C)COC(C)CO (stereo not shown) [Composition C-11, Dipropylene glycol methyl ether]",−0.46
11,"CC1COC(=O)O1 (stereo not shown) [Composition C-12, Propylene carbonate]",−0.5
12,"O=C1CCCO1 [Composition C-13, γ-Butyrolactone]",−0.566
13,"CCCCN1CCCC1=O [Composition C-16, N-Butylpyrrolidone]",1.27
14,"COCCOCCOCCO [Composition C-17, Triethylene glycol monomethyl ether]",−1.12
15,"CC(O)COc1ccccc1 (stereo not shown) [Composition C-19, Phenoxypropanol]",1.51
16,"OCCOCc1ccccc1 [Composition C-20, Benzyl glycol]",1.11
17,"COC(=O)C(C)CCC(=O)N(C)C (stereo not shown) [Composition C-21, 5-(Dimethylamino)-2-methyl-5-oxopentanoic acid methyl ester]",0.39
18,"CCCCCCCC/C=C\CCCCCCCC(=O)OC [Composition C-22, Methyl oleate]",7.45
19,"CCCCCCCCO [Composition C-24, Octanol]",3
20,"CCCCOC(C)=O [Composition C-26, Butyl acetate]",1.82
21,"CCCCOCCOCCOCCCC [Composition C-27, Dibutyl diglycol]",1.92
22,"CCCCC(CC)COCCOCCO (stereo not shown) [Composition C-28, 2-ethylhexyl diglycol]",2
23,CC(C)=O [acetone],−0.24
24,CO [methanol],−0.82
25,CCC(C)=O [methyl ethyl ketone],0.29
26,CCCCCO [pentanol],1.51
27,Xylene [Composition B-2],3.15

# Same assay, conditions: n-octanol/water; listed as gamma-butyl lactone
row,Molecule,LogPow value
1,"O=C1CCCO1 [Composition C-13, γ-Butyrolactone]",−0.57
